{"source": "patent US20160143877A1", "about": "“COMPOSITION FOR SUPPRESSING ADIPOCYTE DIFFERENTIATION, FOR REDUCING FAT ACCUMULATION AND/OR FOR PROMOTING ADIPONECTIN SECRETION AND USAGE FOR SAID COMPOSITION” (PUBLIC UNIVERSITY CORPORATION OSAKA CITY UNIVERSITY, priority 2013, published 2016)", "key": {"3T3-L1 adipocytes [1]": {"test_system": "3T3-L1 adipocytes", "experiment": "Adiponectin expression level in adipocytes by SDS-PAGE and western blotting", "format": "cell-based, Mouse", "details": "sesaminol 0.5 or 1.0 μg/ml added to differentiated adipocytes, three days", "description": "Various physiologically active adipocytokines are secreted from adipocytes. Among these adipocytokines, adiponectin is known to improve insulin resistance and prevent atherosclerosis. In the present Example, the profile of adiponectin secretion after addition of sesaminol to adipocytes was analysed by SDS-PAGE and western blotting.\nIn the same manner as in (1-1) in Example 1, preadipocyte 3T3-L1 cells were cultured until they reached 80 to 90% confluence. […]\nThe sesaminol solution was added so as to obtain the final concentration of sesaminol of 0.5 or 1.0 μg/ml in adipocytes. […] An aliquot of the collected supernatant was subjected to protein quantification using Serva Blue G (Serva Electrophoresis GmbH) based on the absorbance at 595 nm in order to calculate the amount of sample applied to electrophoresis.\nEqual volumes of the supernatant containing cell lysate and a sample buffer were mixed to prepare a sample for electrophoresis. […] The membrane was then subjected to reaction in a DAB solution (3,3′-diaminobenzidine tetrahydrochloride (10 mg), distilled water (1 ml), 0.2 M PBS (50 ml) and 30% H2O2 (100 μl)), dried and then subjected to quantification of intensity of bands using Scion Image (free software: Scion). The ratio of the band intensity of adiponectin relative to the band intensity of β-actin was calculated for the samples."}, "[2]": {"test_system": "various cell lines used in Examples", "experiment": "Toxicity and viability check of the sesaminol solution on the cell lines used", "format": "cell-based", "details": "sesaminol solution (3.0 mg/ml in DMSO) as used in Examples", "description": "The highly concentrated sesaminol solution was dissolved in dimethyl sulphoxide (DMSO) to prepare a sesaminol solution (3.0 mg/ml) to be used in Examples."}, "3T3-L1 adipocytes [3]": {"test_system": "3T3-L1 adipocytes", "experiment": "Fat (TG) accumulation in differentiated adipocytes, Oil red 0 staining and absorbance at 520 nm", "format": "cell-based, Mouse", "details": "sesaminol 0.5 or 1.0 μg/ml added to differentiated adipocytes, three days", "description": "In the same manner as in (1-1) in Example 1, preadipocyte 3T3-L1 cells were cultured until they reached 80 to 90% confluence. Then the medium was replaced with DMEM containing differentiation inducing agents which were bovine insulin (0.2 μM, Wako Pure Chemical Industries, Ltd.), dexamethasone (0.25 μM, Wako Pure Chemical Industries, Ltd.) and 3-isobutyl-1-methylxanthine (0.5 mM, Wako Pure Chemical Industries, Ltd.) (this is referred to as “Day 0 of differentiation induction”). After two days, the medium was replaced with DMEM containing only insulin (0.2 μM). Thereafter, the medium was replaced with fresh DMEM every two days and induction of differentiation was completed on Day 8 of differentiation induction to obtain adipocytes.\nTo the obtained adipocytes, the sesaminol solution was added so as to obtain the final concentration of sesaminol of 0.5 or 1.0 μg/ml. As a control, cells were cultured without addition of the sesaminol solution. […] Cells were analysed under a microscope (OLYMPUS IX-70: Olympus Corporation) and photographed. […] After microscopic observation, cells were added with isopropanol (3 ml) to extract Oil red 0 staining solution and the resulting extract was measured for absorbance at 520 nm. According to the measured values, TG accumulations in cells were compared. […]"}, "3T3-L1 cells [4]": {"test_system": "3T3-L1 cells", "experiment": "Adipocyte differentiation: glycerol-3-phosphate dehydrogenase (GPDH) activity of cells after differentiation induction", "format": "cell-based, Mouse", "details": "sesaminol 0.5 or 1.0 μg/ml during differentiation induction; ** p<0.01 vs control", "description": "GPDH is a rate-limiting enzyme of triacylglycerol (TG; also referred to as triglyceride) synthesis in adipocytes. […] Thus GPDH activity of cells after differentiation induction was measured according to the method of Wise and Green (Wise, L. S. and Green, H., (1979) Participation of one isozyme of cytosolic glycerophosphate dehydrogenase in the adipose conversion of 3T3 cells. The Journal of Biological Chemistry, 254, 273-275). Cells used for the GPDH assay were obtained in the same manner as described in (1-1) and (1-2). As a control, cells were differentiated without addition of the sesaminol solution.\nAdipocytes derived from 3T3-L1 cells on or after Day 8 of induction were washed twice with PBS. Cells were added with a buffer for enzymatic extraction (100 mM triethanolamine, 2.5 mM EDTA) (300 μl) and collected using a cell scraper. […]\nTo a test tube containing the buffer for enzymatic extraction (2800 μl) which was maintained at 28° C. in a water bath, 2-mercaptoethanol (final concentration: 0.1 mM), NADH (final concentration: 0.12 mM), dihydroxyacetone phosphate (DHAP: SIGMA) (final concentration: 0.2 mM) and a measurement sample (50 μl) were added and the absorbance was measured over 3 minutes at 340 nm. GPDH activity was calculated using an extinction coefficient of NADH (6.22 mM^−1cm^−1) on the basis of the change of absorbance per minute (NADH variation). […]"}, "3T3-L1 cells [5]": {"test_system": "3T3-L1 cells", "experiment": "Adipocyte differentiation: TG accumulation by Oil red 0 staining, sesaminol added during differentiation induction", "format": "cell-based, Mouse", "details": "read after Day 8", "description": "Preadipocytes, when differentiated into adipocytes, intracellularly accumulate lipid droplets containing TG and the like. In the present Example, sesaminol was added to preadipocyte during induction of differentiation and intracellular TG after completion of induction was stained with an azo dye, Oil red 0, to evaluate an effect of sesaminol on adipocyte differentiation. Mouse fibroblast cell line 3T3-L1 (Japan Health Sciences Foundation) were used as preadipocytes. 3T3-L1 cells were inoculated at a concentration of 1.0×10^5 to 1.0×10^6 cells/ml and cultured until they reached 80 to 90% confluence in a 5% CO2 incubator at 37° C. The culture medium used was Dulbecco's modified Eagle's medium (DMEM: Nissui Pharmaceutical Co., Ltd.) containing 10% fetal bovine serum (FBS: Nichirei Biosciences, Inc.), penicillin (50 units/ml, Meiji Co., Ltd.) and streptomycin ([…], Meiji Co., Ltd.). […] After washing, cells were analysed under a microscope (OLYMPUS IX-70: Olympus Corporation) and photographed."}}}
{"smiles": "Oc1cc2c(cc1C1OCC3C(c4ccc5c(c4)OCO5)OCC13)OCO2", "note": "(stereo not shown) [sesaminol]", "values": [{"measurement": "adiponectin expression level (band intensity ratio adiponectin/β-actin, control = 1, FIG. 5)", "setting": "3T3-L1 adipocytes [1]", "result": "significantly enhanced with an increase in the amount of sesaminol added"}, {"measurement": "toxicity to and effect on viability of cell lines", "setting": "[2]", "result": "not toxic to and did not affect viability"}, {"measurement": "size of lipid droplets in adipocytes (FIG. 3)", "setting": "3T3-L1 adipocytes [3]", "result": "tend to decrease the size compared to the control"}, {"measurement": "TG accumulation in adipocytes (FIG. 4, percent of control)", "setting": "3T3-L1 adipocytes [3]; * p<0.05 vs control", "result": "decreased TG accumulation"}, {"measurement": "GPDH activity of cells after differentiation induction (FIG. 2, percent of control)", "setting": "3T3-L1 cells [4]", "result": "decreased with an increase in the amount of sesaminol added"}, {"measurement": "cells that did not contain stained lipid droplets (Oil red 0, FIG. 1)", "setting": "3T3-L1 cells [5]; sesaminol 0.5 μg/ml added on Days 0, 2, 4 and 6 of differentiation induction", "result": "many cells"}, {"measurement": "cells that did not contain stained lipid droplets (Oil red 0, FIG. 1)", "setting": "3T3-L1 cells [5]; sesaminol 1.0 μg/ml added on Days 0, 2, 4 and 6 of differentiation induction", "result": "almost all the cells"}]}
